The results in this text go back to patent US20260062422A1 (Halda Therapeutics OpCo, Inc., priority 2022, published 2026).

Molecules are shown by their SMILES.

Test [1] relates to T-Rex 293 cell line SC cells lacking increased expression of progesterone receptor isoform B protein. Kind of test: Cellular growth inhibition, T-Rex 293 SC cells without doxycycline, Example 45. Format: cell-based. As to conditions: T-Rex 293 SC cells not exposed to doxycycline, 72 hours treatment, CellTiter-Glo 2.0.
The subject of test [2] is T-Rex 293 cell line SC3 cells lacking increased expression of androgen receptor protein. The experiment in a line: Cellular growth inhibition, T-Rex 293 SC3 cells without doxycycline, CellTiter-Glo. As to conditions: T-Rex 293 SC3 cells not exposed to doxycycline; 72 hours; CellTiter-Glo 2.0. Format: cell-based. In a few lines:
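Growth inhibition was compared in a T-Rex 293 clone with and without doxycycline (10 ng/mL)-driven androgen receptor overexpression. Compounds were applied for 72 h in hormone-depleted serum, and GI50 came from four-parameter curves of CellTiter-Glo signal.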

Turning to `Cc1sc2c(c1C)C(c1ccc(CC3CC4(CCN(c5ccc(C(=O)N[C@H]6C(C)(C)[C@H](Oc7ccc(C#N)c(Cl)c7)C6(C)C)cn5)CC4)C3)cc1)=N[C@@H](Cc1ncco1)c1nnc(C)n1-2` [Compound I-143], the 50% growth inhibitory concentration (GI50) in test [1] and in test [2] was below 0.5 µM throughout.

For `Cc1sc2c(c1C)C(c1ccc(N3CC(N4CCN(c5ncc(C(=O)N[C@H]6C(C)(C)[C@H](Oc7ccc(C#N)c(Cl)c7)C6(C)C)cn5)CC4)C3)cc1)=NC(Cc1ncco1)c1nnc(C)n1-2` (stereo partly shown) [Compound I-208], the GI50 in test [1] and in test [2] was below 0.5 µM each time.
